From ChEMBL document CHEMBL1649380, “Prediction of drug intestinal absorption by new linear and non-linear QSPR” (Eur J Med Chem, 2011) come the findings set out here.

The data set is described as follows: Drug absorption in human assessed as human intestinal absorption rate. It counts as ADME, tissue-based, Intestine.
For `Cc1ccccc1N1C(=O)c2cc(S(N)(=O)=O)c(Cl)cc2NC1C` (configuration not stated) [METOLAZONE], the “log10(%HIA +10)” value is 1.863.

As to `CC1(C)S[C@@H]2[C@H](NC(=O)[C@H](NC(=O)N3CCN(S(C)(=O)=O)C3=O)c3ccccc3)C(=O)N2[C@H]1C(=O)O` [MEZLOCILLIN], the “log10(%HIA +10)” value came to 1.

With `CN1CCN2c3ccccc3Cc3ccccc3C2C1` (configuration not stated) [MIANSERIN], the “log10(%HIA +10)” value is given as 1.903.

For the molecule `COCC(=O)O[C@]1(CCN(C)CCCc2nc3ccccc3[nH]2)CCc2cc(F)ccc2[C@@H]1C(C)C` [MIBEFRADIL], the “log10(%HIA +10)” value is given as 1.898.

On to `Nc1cc(N2CCCCC2)nc(N)[n+]1[O-]` [MINOXIDIL], for which the “log10(%HIA +10)” value was 2.033.

With `O=C1c2c(O)ccc(O)c2C(=O)c2c(NCCNCCO)ccc(NCCNCCO)c21` [MITOXANTRONE], the “log10(%HIA +10)” value is recorded as 1.176.

Turning to `CCOC(=O)[C@H](CCc1ccccc1)N[C@@H](C)C(=O)N1Cc2cc(OC)c(OC)cc2C[C@H]1C(=O)O` [MOEXIPRIL], the “log10(%HIA +10)” value is listed as 1.176.

Take `CCOC(=O)Nc1ccc2c(c1)N(C(=O)CCN1CCOCC1)c1ccccc1S2` [MORICIZINE]: the “log10(%HIA +10)” value is 1.991.

In the case of `CC(=O)Oc1cc(C(C)C)c(OCCN(C)C)cc1C` [MOXISYLYTE], the “log10(%HIA +10)” value is listed as 1.903.

With `COc1nc(C)nc(Cl)c1N=C1NCCN1` [MOXONIDINE], the “log10(%HIA +10)” value turned out to be 1.991.

`CC(C)(C)NCC(O)COc1cccc2c1CC(O)C(O)C2` (configuration not stated) [NADOLOL]: the “log10(%HIA +10)” value stood at 1.613.

In the case of `COc1ccc2cc([C@H](C)C(=O)O)ccc2c1` [NAPROXEN], the “log10(%HIA +10)” value was 2.037.

Regarding `CCCc1c2oc(C(=O)O)cc(=O)c2cc2c(=O)cc(C(=O)O)n(CC)c12` [NEDOCROMIL], the “log10(%HIA +10)” value is on record as 1.114.

On to `CCN[C@@H]1C[C@H](N)[C@@H](O[C@H]2OC(CN)=CC[C@H]2N)[C@H](O)[C@H]1O[C@H]1OC[C@](C)(O)[C@H](NC)[C@H]1O` [NETILMICIN], for which the “log10(%HIA +10)” value is listed as 1.

With `CCOC(=O)C1=C(C)NC(C)=C(C(=O)OC)C1c1cccc([N+](=O)[O-])c1` (configuration not stated) [NITRENDIPINE], the “log10(%HIA +10)” value is reported as 1.991.

For `O=C(O)c1cc(/N=N/c2ccc(O)c(C(=O)O)c2)ccc1O` [OLSALAZINE], the “log10(%HIA +10)” value worked out at 1.09.

As for `C[C@@H]1O[C@@H](O[C@H]2C[C@@H](O)[C@]3(CO)[C@H]4[C@H](O)C[C@]5(C)[C@@H](C6=CC(=O)OC6)CC[C@]5(O)[C@@H]4CC[C@]3(O)C2)[C@H](O)[C@H](O)[C@H]1O` [OUABAIN], the “log10(%HIA +10)” value was found to be 1.057.

Turning to `COc1ccc2c3c1O[C@H]1C(=O)CC[C@@]4(O)[C@@H](C2)N(C)CC[C@]314` [OXYCODONE], the “log10(%HIA +10)” value was 1.845.

In the case of `COc1cccc(C(=O)CCN[C@@H](C)[C@H](O)c2ccccc2)c1` [OXYFEDRINE], the “log10(%HIA +10)” value was 1.978.

For `CN(C)[C@@H]1C(O)=C(C(N)=O)C(=O)[C@@]2(O)C(O)=C3C(=O)c4c(O)cccc4[C@@](C)(O)[C@H]3[C@H](O)[C@@H]12` [OXYTETRACYCLINE], the “log10(%HIA +10)” value is listed as 1.833.

As to `CC(C)NCC(O)COc1ccc(CCNC(=O)NC(C)C)cc1` (configuration not stated) [PAFENOLOL], the “log10(%HIA +10)” value is 1.591.

Take `NCCC(O)(P(=O)(O)O)P(=O)(O)O` [PAMIDRONIC ACID]: the “log10(%HIA +10)” value amounted to 1.176.

On to `N=C(N)c1ccc(OCCCCCOc2ccc(C(=N)N)cc2)cc1` [PENTAMIDINE], for which the “log10(%HIA +10)” value is recorded as 1.

Take `O=C(O)c1ccccc1C(=O)Nc1ccc(S(=O)(=O)Nc2nccs2)cc1` [PHTHALYLSULFATHIAZOLE]: the “log10(%HIA +10)” value is given as 1.176.

Regarding `O=c1[nH]c2ccccc2n1C1CCN(CCCC(c2ccc(F)cc2)c2ccc(F)cc2)CC1` [PIMOZIDE], the “log10(%HIA +10)” value was determined as 1.903.

As for `CC(C)(C)NCC(O)c1ccc(O)c(CO)n1` (configuration not stated) [PIRBUTEROL], the “log10(%HIA +10)” value came to 1.845.

On to `CC[C@H](C)C(=O)O[C@H]1C[C@H](O)C=C2C=C[C@H](C)[C@H](CC[C@@H](O)C[C@@H](O)CC(=O)O)[C@H]21` [PRAVASTATIN], for which the “log10(%HIA +10)” value is recorded as 1.643.

`CC(C)NCC(O)COc1cccc2ccccc12` (configuration not stated) [PROPRANOLOL]: the “log10(%HIA +10)” value worked out at 2.037.

Consider `CCCc1cc(=O)[nH]c(=S)[nH]1` [PROPYLTHIOURACIL], for which the “log10(%HIA +10)” value is 1.929.

As for `OCCOCCN1CCN(C2=Nc3ccccc3Sc3ccccc32)CC1` [QUETIAPINE], the “log10(%HIA +10)” value was found to be 1.919.

On to `OC[C@H]1O[C@H](OC[C@H]2O[C@H](O[C@]3(CO)O[C@H](CO)[C@@H](O)[C@@H]3O)[C@H](O)[C@@H](O)[C@@H]2O)[C@H](O)[C@@H](O)[C@H]1O` [RAFFINOSE], for which the “log10(%HIA +10)” value stood at 1.013.

In the case of `CNC(=C[N+](=O)[O-])NCCSCc1ccc(CN(C)C)o1` [RANITIDINE], the “log10(%HIA +10)” value worked out at 1.798.

Regarding `Cn1c(=O)c2c(ncn2CCCNCC(O)c2cc(O)cc(O)c2)n(C)c1=O` (configuration not stated) [REPROTEROL], the “log10(%HIA +10)” value is on record as 1.845.

In the case of `Oc1ccc(C(O)C2CCCCN2)cc1O` (configuration not stated) [RIMITEROL], the “log10(%HIA +10)” value was determined as 1.763.

As for `O=P(O)(O)C(O)(Cc1cccnc1)P(=O)(O)O` [RISEDRONIC ACID], the “log10(%HIA +10)” value was 1.041.

With `CCN(C)C(=O)Oc1cccc([C@H](C)N(C)C)c1` [RIVASTIGMINE], the “log10(%HIA +10)” value is on record as 2.041.

Turning to `O=C1NS(=O)(=O)c2ccccc21` [SACCHARIN], the “log10(%HIA +10)” value was determined as 1.991.

Turning to `CC(C)NCC(O)c1ccc(NS(C)(=O)=O)cc1` (configuration not stated) [SOTALOL], the “log10(%HIA +10)” value is 2.021.

On to `[H]/N=C(/N)N[C@H]1[C@H](O)[C@@H](O)[C@H](O[C@@H]2O[C@@H](C)[C@](O)(C=O)[C@H]2O[C@@H]2O[C@@H](CO)[C@H](O)[C@@H](O)[C@@H]2NC)[C@@H](N/C(N)=N\[H])[C@@H]1O` [STREPTOMYCIN], for which the “log10(%HIA +10)” value is 1.041.

Turning to `CN(N=O)C(=O)N[C@@H](C=O)[C@@H](O)[C@H](O)[C@H](O)CO` [STREPTOZOCIN], the “log10(%HIA +10)” value worked out at 1.

`O=C(O)CCC(=O)Nc1ccc(S(=O)(=O)Nc2nccs2)cc1` [SUCCINYLSULFATHIAZOLE]: the “log10(%HIA +10)” value is recorded as 1.176.

As to `CCN1CCCC1CNC(=O)c1cc(S(N)(=O)=O)ccc1OC` (configuration not stated) [SULPIRIDE], the “log10(%HIA +10)” value was 1.732.

For the molecule `CCN1CCCC1CNC(=O)c1cc(S(=O)(=O)CC)ccc1OC` (configuration not stated) [SULTOPRIDE], the “log10(%HIA +10)” value was 1.996.

In the case of `NC(=O)N1C(=O)/C(=C(\O)c2cccs2)c2cc(Cl)ccc21` [TENIDAP], the “log10(%HIA +10)” value is 1.996.

Turning to `CC(C)(C)NCC(O)c1cc(O)cc(O)c1` (configuration not stated) [TERBUTALINE], the “log10(%HIA +10)” value is 1.857.

Consider `CC1(C)S[C@@H]2[C@H](NC(=O)[C@H](C(=O)O)c3ccsc3)C(=O)N2[C@H]1C(=O)O` [TICARCILLIN], for which the “log10(%HIA +10)” value worked out at 1.176.

On to `CC(C)(C)NC[C@H](O)COc1nsnc1N1CCOCC1` [TIMOLOL], for which the “log10(%HIA +10)” value worked out at 2.021.

Turning to `NC[C@H]1O[C@H](O[C@H]2[C@H](O)[C@@H](O[C@H]3O[C@H](CO)[C@@H](O)[C@H](N)[C@H]3O)[C@H](N)C[C@@H]2N)[C@H](N)C[C@@H]1O` [TOBRAMYCIN], the “log10(%HIA +10)” value is 1.

In the case of `CCCCNC(=O)NS(=O)(=O)c1ccc(C)cc1` [TOLBUTAMIDE], the “log10(%HIA +10)” value was 1.978.

In the case of `COc1ccc2c(C(=S)N(C)CC(=O)O)cccc2c1C(F)(F)F` [TOLRESTAT], the “log10(%HIA +10)” value amounted to 1.881.

As for `CCOC(=O)[C@H](CCc1ccccc1)N[C@@H](C)C(=O)N1[C@H](C(=O)O)C[C@H]2CCCC[C@@H]21` [TRANDOLAPRIL], the “log10(%HIA +10)” value was 1.778.

In the case of `COc1cc(Cc2cnc(N)nc2N)cc(OC)c1OC` [TRIMETHOPRIM], the “log10(%HIA +10)” value is reported as 2.029.

Consider `CC(=O)CC(c1ccccc1)c1c(O)c2ccccc2oc1=O` (configuration not stated) [WARFARIN], for which the “log10(%HIA +10)” value worked out at 2.033.

For the molecule `Nc1ccn([C@H]2CC[C@@H](CO)O2)c(=O)n1` [ZALCITABINE], the “log10(%HIA +10)” value was 1.978.

For the molecule `O=C1Cc2cc(CCN3CCN(c4nsc5ccccc45)CC3)c(Cl)cc2N1` [ZIPRASIDONE], the “log10(%HIA +10)” value came out at 1.845.

Regarding GENTAMICIN, the “log10(%HIA +10)” value was found to be 1.

Regarding IVERMECTIN, the “log10(%HIA +10)” value is listed as 1.845.
